Experimental data: PMC9820814, “In Vitro Reconstitution of the Melanin Pathway’s Catalytic Activities Using Tyrosinase Nanoparticles” (International Journal of Molecular Sciences, 2022)

Experiments:
TYRP1 = target: T1, TYRP1 (Homo sapiens, UniProt P17643); experiment: DHICA oxidation, IQCA absorbance at […] nm; format: biochemical; conditions: 1.5 mM DHICA; pH 7.4; 37 °C; 24 h; no MBTH
T1 construct: recombinant truncated intra-melanosomal domain, C-terminal part with transmembrane helix removed, purified on His-Trap; baculovirus / T. ni larvae; ~59 kDa

TYR = target: T2, TYR (Homo sapiens, UniProt P14679); experiment: diphenol oxidase activity, dopachrome absorbance at […] nm, Michaelis-Menten fit; format: biochemical; conditions: free enzyme; 10 min incubation; 10 mM NaPO4 pH 7.4; 37 °C; unit printed mM^−1 (sic, mM meant)
T2 construct: recombinant truncated intra-melanosomal domain, C-terminal part with transmembrane helix removed, His-tagged; baculovirus / T. ni larvae
T2 sequence (P14679 19-469 limits assumed): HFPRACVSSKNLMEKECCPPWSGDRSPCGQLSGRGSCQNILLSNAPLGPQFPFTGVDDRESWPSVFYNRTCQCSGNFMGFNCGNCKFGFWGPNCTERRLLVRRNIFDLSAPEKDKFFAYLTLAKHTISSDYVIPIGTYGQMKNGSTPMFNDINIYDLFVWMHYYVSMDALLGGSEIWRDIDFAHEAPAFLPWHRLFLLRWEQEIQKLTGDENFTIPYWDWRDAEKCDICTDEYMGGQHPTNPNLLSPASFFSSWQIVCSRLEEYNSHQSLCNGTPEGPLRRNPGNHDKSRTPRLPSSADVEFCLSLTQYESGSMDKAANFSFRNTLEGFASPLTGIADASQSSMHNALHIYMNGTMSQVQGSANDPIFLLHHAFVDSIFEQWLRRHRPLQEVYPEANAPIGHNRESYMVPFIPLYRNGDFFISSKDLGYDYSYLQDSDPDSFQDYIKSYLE

T1 sequence (P17643 25-477 limits assumed): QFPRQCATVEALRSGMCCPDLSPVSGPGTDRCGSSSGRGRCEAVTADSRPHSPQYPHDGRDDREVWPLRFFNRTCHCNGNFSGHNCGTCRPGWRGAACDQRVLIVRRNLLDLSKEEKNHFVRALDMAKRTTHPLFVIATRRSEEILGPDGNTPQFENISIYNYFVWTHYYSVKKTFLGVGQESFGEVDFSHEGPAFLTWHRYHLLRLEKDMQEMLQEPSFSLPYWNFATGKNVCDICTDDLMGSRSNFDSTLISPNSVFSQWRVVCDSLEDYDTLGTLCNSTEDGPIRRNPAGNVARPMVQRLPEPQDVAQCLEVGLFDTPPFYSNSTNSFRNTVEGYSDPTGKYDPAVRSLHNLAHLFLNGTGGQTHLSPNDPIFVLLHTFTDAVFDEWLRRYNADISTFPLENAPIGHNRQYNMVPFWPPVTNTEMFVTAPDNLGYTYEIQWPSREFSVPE

Km (mM^-1) / Tyr (TYR) [mM⁻¹] | SMILES | DHICA oxidation, IQCA absorbance at 560 nm (TYRP1)
– | O=C(O)c1cc2cc(O)c(O)cc2[nH]1 [DHICA] | the spectrum of the reaction shows the formation of a peak corresponding to a new product
0.241 ± 0.069 | N[C@@H](Cc1ccc(O)c(O)c1)C(=O)O [L-DOPA] | –
